The values below come from paper PMC6356299, “Design and Synthesis of a Chitodisaccharide-Based Affinity Resin for Chitosanases Purification” (Marine Drugs, 2019).

Values after ≈ are worked out from the molar mass of the structure shown.

By Kd is commonly meant the equilibrium constant for the complex coming apart. High values mean weaker binding, low ones tighter binding.

This experiment deals with T1, CsnOU01 (GH family 46 chitosanase) (Microbacterium sp. OU01, UniProt A7KBW5).
T1 construct: about 28 kDa
T1 sequence (A7KBW5 26-266): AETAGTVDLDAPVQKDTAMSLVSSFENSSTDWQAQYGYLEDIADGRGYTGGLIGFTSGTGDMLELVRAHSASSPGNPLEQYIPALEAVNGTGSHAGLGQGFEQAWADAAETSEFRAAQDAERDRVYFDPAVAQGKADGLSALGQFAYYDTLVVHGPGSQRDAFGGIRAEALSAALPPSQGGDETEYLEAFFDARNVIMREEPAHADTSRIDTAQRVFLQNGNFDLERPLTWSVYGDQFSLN
Description: equilibrium adsorption to ligand-coupled Sepharose 6B, Scatchard analysis. The experiment is classed as binding. To be noted: compound immobilised on Sepharose 6B via cyanuric chloride spacer (not the free sugar); Kd in mass concentration of enzyme; 20 mM Tris-HCl, pH 8.0. An excerpt: equilibrium adsorption to ligand-coupled Sepharose 6B, Scatchard analysis on CsnOU01 (GH family 46 chitosanase)
As to chitotrisaccharide [CHTS], the “Kd” value came out at 20.7 µg/mL.

Regarding glucosamine, the “Kd” value was found to be 88.5 µg/mL.

Regarding `N[C@H]1[C@H](O[C@H]2[C@H](O)[C@@H](N)C(O)O[C@@H]2CO)O[C@H](CO)[C@@H](O)[C@@H]1O` (stereo partly drawn) [CHDS, chitodisaccharide], the “Kd” value worked out at 16.4 µg/mL (≈ 48.2 µM).
